According to patent publication US6599894B1, “Amidinobenzylamine derivatives and their use as thrombin inhibitors” (AstŕaZeneca AB, priority 1999, dated 2003):

Assay: Test E: determination of thrombin time ex vivo (bioavailability of active inhibitor after prodrug administration)
Details: conscious rat, estimated from thrombin time or ecarin clotting time in plasma
Text: Determination of Thrombin Time Ex Vivo
The inhibition of thrombin after oral or parenteral administration of the compounds of formula I, dissolved in ethanol:Solutol™:water (5:5:90), were examined in conscious rats which, one or two days prior to the experiment, were equipped with a catheter for blood sampling from the carotid artery. On the experimental day blood samples were withdrawn at fixed times after the administration of the compound into plastic tubes containing 1 part sodium citrate solution (0.13 mol per L) and 9 parts of blood. The tubes were centrifuged to obtain platelet poor plasma. The plasma was used for determination of thrombin time or ecarin clotting time (ECT) as described below.
The citrated rat plasma, 100 μL, was diluted with a saline solution, 0.9%, 100 μL, and plasma coagulation was started by the addition of human thrombin (T 6769, Sigma Chem Co, USA or Hematologic Technologies) in a buffer solution, pH 7.4, 100 μL, or ecarin (Pentapharm). The clotting time was measured in an automatic device (KC 10, Amelung, Germany).
[(AUCpd/dose)/(AUCactive,parenteral/dose]×100

In the case of `CON=C(N)c1ccc(CNC(=O)[C@@H]2CCN2C(=O)C(O)c2cc(Cl)cc(N(C)C)c2)cc1` (single isomer, unassigned) [Example 12, Ph(3-Cl,5-NMe2)-(R) or-(S)CH(OH)C(O)-Aze-Pab(OMe)], the “oral and/or parenteral bioavailability as the corresponding active inhibitor (free amidine)” value is reported as “exhibit oral and/or parenteral bioavailability in the rat”.
With `CON=C(N)c1ccc(CNC(=O)C2CCN2C(=O)C(O)c2cc(Cl)cc(N(C)C(C)=O)c2)cc1.O=C(O)C(F)(F)F` (single isomer, unassigned) [Example 18, Ph(3-Cl,5-NMeAc)-(R) or-(S)CH(OH)C(O)-Aze-Pab(OMe)×TFA] the “oral and/or parenteral bioavailability as the corresponding active inhibitor (free amidine)” value was “exhibit oral and/or parenteral bioavailability in the rat”.
For `CON=C(N)c1ccc(CNC(=O)C2CCN2C(=O)C(O)c2cccc(N3CCCC3=O)c2)cc1.O=C(O)C(F)(F)F` (single isomer, unassigned) [Example 19, Ph(3-(1-Pyrrolidin-2-one))-(R) or-(S)CH(OH)C(O)-Aze-Pab(OMe)×TFA], the “oral and/or parenteral bioavailability as the corresponding active inhibitor (free amidine)” value was “exhibit oral and/or parenteral bioavailability in the rat”.
In the case of `CON=C(N)c1ccc(CNC(=O)C2CCN2C(=O)C(O)c2cccc(N(C)C)c2)cc1` [Example 2, Ph(3-N(Me)2)-(R)- or-(S)CH(OH)—CO-Aze-Pab(OMe)], the “oral and/or parenteral bioavailability as the corresponding active inhibitor (free amidine)” value is reported as “exhibit oral and/or parenteral bioavailability in the rat”.
For “Ph(3-Cl,5-NMe2)-(R) or -(S)CH(OH)C(O)-Aze-Pab(O-Et) [Example 13]”, the “oral and/or parenteral bioavailability as the corresponding active inhibitor (free amidine)” value was “exhibit oral and/or parenteral bioavailability in the rat”.
In the case of “Ph(3-Cl,5-NMe2)-(R) or -(S)CH(OH)C(O)-Aze-Pab(O-i-Pr) [Example 15]”, the “oral and/or parenteral bioavailability as the corresponding active inhibitor (free amidine)” value is reported as “exhibit oral and/or parenteral bioavailability in the rat”.
